# Tested on: HSP70
# Experiment: HSP70 levels in Neuro 2a cells, ELISA
# Type: cell-based, mouse
# Conditions: 100 nM, 48 hrs compound then 24 hrs GGTI-298
# Experimental: Mouse neuroblastoma 2a cells were cultured in DMEM with 10% FBS for 24 hrs. […] After 24 hrs cells were harvested and lysates were prepared and analyzed by ELISA for HSP70. Compound ID numbers in table refer to structures in Table 1 and Table 2.
row,SMILES,"HSP70 level, ELISA signal (absence of compounds normalized as 1.00)"
1,COCC(=O)C(C/C=C(\C)CC/C=C(\C)CC/C=C(\C)CCC=C(C)C)C(=O)OC (stereo not shown) [Compound 80],1.02
2,"CC(C)=CCC/C(C)=C/CC/C(C)=C/c1ncc(C)o1 [Compound 15, 5-methyl-2-((1E,5E)-2,6,10-trimethylundeca-1,5,9-trien-1-yl)oxazole]",1.08
3,CC(C)=CCC/C(C)=C/CC/C(C)=C/CC/C(C)=C/CCC(=O)C(C)(C)C [Compound 60],0.89
4,"CC(C)=CCC/C(C)=C/CC/C(C)=C/CC/C(C)=C/COC(=O)Nc1ccncc1 [Compound 39, (2E,6E,10E)-3,7,11,15-tetramethylhexadeca-2,6,10,14-tetraen-1-yl pyridin-4-ylcarbamate]",1.15
5,"CC(C)=CCC/C(C)=C/CC/C(C)=C/CC/C(C)=C/COC(=O)Nc1ccccn1 [Compound 40b, (2E,6E,10E)-3,7,11,15-tetramethylhexadeca-2,6,10,14-tetraen-1-yl pyridin-2-ylcarbamate]",0.92
6,"COc1ccc(NC(=O)OC/C=C(\C)CC/C=C(\C)CC/C=C(\C)CCC=C(C)C)cc1OC [Compound 7t, 3′,4′-Dimethoxyphenyl 2E, 6E, 10E-geranylgeranyl carbamate]",1.07
7,"CCCCCCNC(=O)OC(C)CC/C=C(\C)CC/C=C(\C)CC/C=C(\C)CCC=C(C)C (racemic) [Compound 23f, 5E, 9E, 13E-Geranylgeranyl-rac-prop-2-yl n-hexyl carbamate]",0.91
8,CCOC(=O)/C=C/C=C(\C)CC/C=C(\C)CC/C=C(\C)CCC=C(C)C [Compound 65],0.90
9,"CC(C)=CCC/C(C)=C/CC/C(C)=C/CC/C(C)=C/COC(=S)Nc1cccnc1 [Compound 38a, O-((2E,6E,10E)-3,7,11,15-tetramethylhexadeca-2,6,10,14-tetraen-1-yl) pyridin-3-ylcarbamothioate]",0.79
10,"CC(C)=CCC/C(C)=C/CC/C(C)=C/CC/C(C)=C/CCC(C)OC(=O)NC(C)C (racemic) [Compound 23a, 5E, 9E, 13E-Geranylgeranyl-rac-prop-2-yl iso-propyl carbamate]",1.21
11,CC(C)=CCC/C(C)=C/CC/C(C)=C/CC/C(C)=C/CC/C(C)=N/OC1CCCCO1 (stereo not shown) [Compound 111],1.10
12,"CC(C)=CCC/C(C)=C/CC/C(C)=C/CC/C(C)=C/COC(=O)Nc1cccnc1 [Compound 7z, 3′-Pyridyl 2E, 6E,10E-geranylgeranyl carbamate]",0.96
13,CCOC(=O)C(C/C=C(\C)CC/C=C(\C)CC/C=C(\C)CCC=C(C)C)C(C)=O (stereo not shown) [Compound 87],0.95
14,"CC(C)=CCC/C(C)=C/CC/C(C)=C/CC/C(C)=C/COC(=S)Nc1ccccc1 [Compound 10k, Phenyl 2E,6E,10E-geranylgeranyl thiocarbamate]",1.11
15,"CC(C)=CCC/C(C)=C/CC/C(C)=C/CC/C(C)=C/COC(=O)NCc1ccco1 [Compound 7aa, 2′-Furanyl methyl 2E, 6E, 10E]-geranylgeranyl carbamate]",1.05
16,C=CCO/N=C(\C)CC/C=C(\C)CC/C=C(\C)CC/C=C(\C)CCC=C(C)C [Compound 109],1.12
17,CC(C)=CCC/C(C)=C/CC/C(C)=C/CC/C(C)=C/CCC(=O)C(C)C [Compound 74],1.08
18,"CCNC(=O)OC(C)CC/C=C(\C)CC/C=C(\C)CCC=C(C)C (stereo not shown) [Compound 20a, Ethyl 5E,9E-farnesyl prop-2-yl carbamate]",0.91
19,CCC(=O)CC/C=C(\C)CC/C=C(\C)CC/C=C(\C)CCC=C(C)C [Compound 61],0.98

# Same assay, conditions: 10uM, 48 hrs compound then 24 hrs GGTI-298
row,SMILES,"HSP70 level, ELISA signal (absence of compounds normalized as 1.00)"
1,"CCNC(=S)OC/C=C(\C)CC/C=C(\C)CCC=C(C)C [Compound 9a, Ethyl 2E, 6E-farnesyl thiocarbamate]",0.94
2,"CC(C)=CCC/C(C)=C/c1nc(-c2ccccc2)no1 [Compound 35c, (E)-5-(2,6-dimethylhepta-1,5-dien-1-yl)-3-phenyl-1,2,4-oxadiazole]",1.04
3,"CC(C)=CCC/C(C)=C/c1nc(-c2ccccc2)co1 [Compound 32, (E)-2-(2,6-dimethylhepta-1,5-dien-1-yl)-4-phenyloxazole]",0.96
4,"COc1cc(C(=O)OC/C=C(\C)CC/C=C(\C)CC/C=C(\C)CCC=C(C)C)cc(OC)c1OC [Compound 2h, 2E, 6E, 10E-Geranylgeranyl-3′,4′,5′-trimethoxybenzoate]",0.94
5,"COc1ccc(-c2nnc(/C=C(\C)CC/C=C(\C)CC/C=C(\C)CCC=C(C)C)o2)cc1 [Compound 29c, 2-(4-methoxyphenyl)-5-((1E,5E,9E)-2,6,10,14-tetramethylpentadeca-1,5,9,13-tetraen-1-yl)-1,3,4-oxadiazole]",1.06
6,"CC(C)=CCC/C(C)=C/CC/C(C)=C/CC/C(C)=C/c1ncc(C)o1 [Compound 16, 5-methyl-2-((1E,5E,9E)-2,6,10,14-tetramethylpentadeca-1,5,9,13-tetraen-1-yl)oxazole]",0.89
7,"CC(C)=CCC/C(C)=C/CC/C(C)=C/CC/C(C)=C/COC(=O)c1c(C)cc(C)cc1C [Compound 2l, 2E, 6E, 10E-Geranylgeranyl-2′,4′,6′trimethylbenzoate]",1.05
8,"CC(C)=CCC/C(C)=C/CC/C(C)=C/COS(=O)(=O)c1ccc(C)cc1 [Compound 6b, 2E, 6E-Farnesyl p-toluenesulfonate]",1.18
9,"C=CCNC(=O)OC/C=C(\C)CC/C=C(\C)CC/C=C(\C)CCC=C(C)C [Compound 7k, Allyl 2E, 6E, 10E-geranylgeranyl carbamate]",1.20
10,"CC(C)=CCC/C(C)=C/CC/C(C)=C/CC/C(C)=C/C1=N[C@@H](C(C)C)C(=O)O1 [Compound 37b, (S)-4-isopropyl-2-((1E,5E,9E)-2,6,10,14-tetramethylpentadeca-1,5,9,13-tetraen-1-yl)oxazol-5(4H)-one]",0.89
11,"CC(C)=CCC/C(C)=C/CC/C(C)=C/CC/C(C)=C/c1nnc(-c2ccncc2)o1 [Compound 29f, 2-(pyridin-4-yl)-5-((1E,5E,9E)-2,6,10,14-tetramethylpentadeca-1,5,9,13-tetraen-1-yl)-1,3,4-oxadiazole]",1.01
12,CNC(=O)OC/C=C(\C)CC/C=C(\C)CCC=C(C)C [Compound 42],1.25
